In patent US5889148A, “Antibiotic peptides” (priority 1995, dated 1999):
Converted amounts (≈) assume the structure as drawn. Non-standard residues stand in square brackets, D forms with d. No end group written: not given here. Aib = CC(C)(N)C(=O)O

Assays:
[1] = system: Candida albicans (ATCC 36232); assay: MIC test, antifungal activity; format: cell-based
Experimental: (§1) Antibacterial and antifungal activities of the peptides were determined by employing MIC test as follows:
(§2) To determine antifungal activity, a test organism Candida albicans (ATCC 36232) was cultured on Sabouraud dextrose agar plate for 24 to 48 hrs, and colonies thus grown were suspended on Sabouraud dextrose medium(Gibco, USA) to have O.D.530 =0.5(3×10^6 cells) and further diluted with 100-fold to have O.D.530 =0.005(3×10^4 cells). 100 μl of Candida albicans culture thus prepared was pipetted on 96-well microplates which had already contained 100 μl of a serially diluted peptide solution.

[2] = system: Staphylococcus aureus (ATCC 6538); assay: MIC test, antibacterial activity; format: cell-based
Experimental: as §1, §2
Antibacterial activity of peptide was determined analogously as above, with an exception that Staphylococcus aureus (ATCC 6538) selected as a test organism was cultured on M-3 medium(Gibco, USA) at 37° C. and cell number was adjusted to 2×10^8 cells before 100-fold dilution.

[3] = Table 7, comparison with Ketoconazole (Example 3)
[4] = Table 2, modification of N-terminal residues of TED
[5] = Table 8, TEDFK derivatives of group 1
[6] = Table 3, addition of an amino acid to N-terminal of TED
[7] = Table 4, addition of an amino acid to N-terminal of TEDF
[8] = Table 11, enantiomer, retro-inverso, D-amino acid derivatives of M22
[9] = Table 1, peptide fragments of Tenecin
[10] = Table 10, TEDFK derivatives of group 3
[11] = Table 6, substitution of Cys in TEDFK with Aib
[12] = Table 9, TEDFK derivatives of group 2

Compound: KFYCVGKRVCVCR--NH2 (KFYCVGKRVCVCR-NH2; cysteine pairing not given here) [TEDFK-6]
- MIC against C. albicans ([1]; Table 5, modification of TEDFK): 5 µg/mL
- MIC against C. albicans [1, 3]: 6 µg/mL

Compound: KGKRVCVCR--NH2 (KGKRVCVCR-NH2; cysteine pairing not given here) [TED12]
- MIC against C. albicans [1, 4]: > 500 µg/mL

Compound: GKRVCVCR--NH2 (GKRVCVCR-NH2; cysteine pairing not given here) [TED11]
- MIC against C. albicans [1, 4]: > 500 µg/mL

Compound: KFYCNKRVCVCR--NH2 (KFYCNKRVCVCR-NH2; cysteine pairing not given here) [TEDFK-1]
- MIC against C. albicans ([1]; Table 5, modification of TEDFK): 5 µg/mL

Compound: KWYCNGKRVCVCR--NH2 (KWYCNGKRVCVCR-NH2; cysteine pairing not given here) [M26]
- MIC S. aureus [2, 5]: 6.35 µg/mL
- MIC C. albicans [1, 5]: 6.25 µg/mL

Compound: WYCNGKRVCVCR--NH2 (WYCNGKRVCVCR-NH2; cysteine pairing not given here) [TEDW]
- MIC S. aureus [2, 6]: 20 µg/mL
- MIC C. albicans [1, 6]: 20 µg/mL

Compound: FKYCNGKRVCVCR--NH2 (FKYCNGKRVCVCR-NH2; cysteine pairing not given here) [M3]
- MIC S. aureus [2, 5]: 12.7 µg/mL
- MIC C. albicans [1, 5]: 12.5 µg/mL

Compound: LYCNGKRVCVCR--NH2 (LYCNGKRVCVCR-NH2; cysteine pairing not given here) [TEDL]
- MIC S. aureus [2, 6]: 5 µg/mL
- MIC C. albicans [1, 6]: 5 µg/mL

Compound: FPYCNGKRVCVCR--NH2 (FPYCNGKRVCVCR-NH2; cysteine pairing not given here) [TEDFP]
- MIC S. aureus [2, 7]: > 500 µg/mL
- MIC C. albicans [1, 7]: > 500 µg/mL

Compound: KPYCNGKRVCVCR--NH2 (KPYCNGKRVCVCR-NH2; cysteine pairing not given here) [M2]
- MIC S. aureus [2, 5]: 6.35 µg/mL
- MIC C. albicans [1, 5]: 6.25 µg/mL

Compound: KFYCNGRVCVCR--NH2 (KFYCNGRVCVCR-NH2; cysteine pairing not given here) [TEDFK-2]
- MIC against C. albicans ([1]; Table 5, modification of TEDFK): 5 µg/mL
- MIC against C. albicans [1, 3]: 6 µg/mL

Compound: KFYCNGKRVCVCL--NH2 (KFYCNGKRVCVCL-NH2; cysteine pairing not given here) [TEDFK-10]
- MIC against C. albicans ([1]; Table 5, modification of TEDFK): 5 µg/mL
- MIC against C. albicans [1, 3]: 6 µg/mL

Compound: KFYCKGKRVCVCR--NH2 (KFYCKGKRVCVCR-NH2; cysteine pairing not given here) [TEDFK-7]
- MIC against C. albicans ([1]; Table 5, modification of TEDFK): 3 µg/mL
- MIC against C. albicans [1, 3]: 3 µg/mL

Compound: kfycngkrvcvcr-NH2 [Enantiomer of TEDFK]
- MIC S. aureus [2, 8]: 6.35 µg/mL
- MIC C. albicans [1, 8]: 6.35 µg/mL

Compound: KYCNGKRVCVCR--NH2 (KYCNGKRVCVCR-NH2; cysteine pairing not given here) [TEDK]
- MIC S. aureus [2, 6]: 5 µg/mL
- MIC C. albicans [1, 6]: 5 µg/mL

Compound: LSVEAKGVKLGGGYCNGKRVCVCR--NH2 (LSVEAKGVKLGGGYCNGKRVCVCR-NH2; cysteine pairing not given here) [TEQ]
- MIC S. aureus [2, 9]: > 500 µg/mL
- MIC C. albicans [1, 9]: > 100 µg/mL

Compound: DYCNGKRVCVCR--NH2 (DYCNGKRVCVCR-NH2; cysteine pairing not given here) [TEDD]
- MIC S. aureus [2, 6]: 10 µg/mL
- MIC C. albicans [1, 6]: 50 µg/mL

Compound: KFYCNPKRVCVCR--NH2 (KFYCNPKRVCVCR-NH2; cysteine pairing not given here) [TEDFK-3]
- MIC against C. albicans ([1]; Table 5, modification of TEDFK): 5 µg/mL
- MIC against C. albicans [1, 3]: 6 µg/mL

Compound: KFYCNWKRVCVCR--NH2 (KFYCNWKRVCVCR-NH2; cysteine pairing not given here) [M30]
- MIC S. aureus [2, 5]: 12.7 µg/mL
- MIC C. albicans [1, 5]: 12.5 µg/mL

Compound: KKYCNGKRVCVCR--NH2 (KKYCNGKRVCVCR-NH2; cysteine pairing not given here) [M1]
- MIC S. aureus [2, 5]: 3.16 µg/mL
- MIC C. albicans [1, 5]: 3.12 µg/mL

Compound: KFYCNLKRVCVCR--NH2 (KFYCNLKRVCVCR-NH2; cysteine pairing not given here) [TEDFK-4]
- MIC against C. albicans ([1]; Table 5, modification of TEDFK): 5 µg/mL

Compound: KKYIVFVFK--NH2 (KKYIVFVFK-NH2) [M33]
- MIC against C. albicans [1, 10]: 3.12 µg/mL

Compound: KKYIkkVFVFK--NH2 [M22-27]
- MIC S. aureus [2, 8]: 3.17 µg/mL
- MIC C. albicans [1, 8]: 3.11 µg/mL

Compound: KFYCNGKRV[Aib]VCR-NH2 (cysteine pairing not given here) [TEDFK-2A]
- MIC against C. albicans [1, 11]: 5 µg/mL
- MIC against C. albicans [1, 3]: 6 µg/mL

Compound: YCNGKRVCVCRKK--NH2 (YCNGKRVCVCRKK-NH2; cysteine pairing not given here) [M15]
- MIC S. aureus [2, 5]: 6.35 µg/mL
- MIC C. albicans [1, 5]: 6.25 µg/mL

Compound: KFYCNGKRV[Aib]VCK-NH2 (cysteine pairing not given here) [M25]
- MIC S. aureus [2, 5]: 6.35 µg/mL
- MIC C. albicans [1, 5]: 6.25 µg/mL

Compound: KFYCNPGPVCVCR--NH2 (KFYCNPGPVCVCR-NH2; cysteine pairing not given here) [TEDFK-9]
- MIC against C. albicans ([1]; Table 5, modification of TEDFK): 20 µg/mL
- MIC against C. albicans [1, 3]: 12 µg/mL

Compound: KCNGKRVCVCR--NH2 (KCNGKRVCVCR-NH2; cysteine pairing not given here) [TED18]
- MIC against C. albicans [1, 4]: > 500 µg/mL

Compound: KFY[Aib]KGKRVCVCR-NH2 (cysteine pairing not given here) [M17]
- MIC S. aureus [2, 5]: 6.35 µg/mL
- MIC C. albicans [1, 5]: 6.25 µg/mL

Compound: KKYIKKVFVFk--NH2 [M22-7]
- MIC S. aureus [2, 8]: 3.11 µg/mL
- MIC C. albicans [1, 8]: 3.12 µg/mL

Compound: KKYCNKKCVCK--NH2 [M6] (KKYCNKKCVCK-NH2; cysteine pairing not given here)
- MIC S. aureus [2, 5]: 3.16 µg/mL
- MIC C. albicans [1, 5]: 3.12 µg/mL

Compound: AYCNGKRVCVCR--NH2 (AYCNGKRVCVCR-NH2; cysteine pairing not given here) [TEDA]
- MIC S. aureus [2, 6]: 10 µg/mL
- MIC C. albicans [1, 6]: 10 µg/mL

Compound: KFYCNGKRVCVCR--NH2 [TEDFK] (KFYCNGKRVCVCR-NH2; cysteine pairing not given here)
- MIC S. aureus [2, 7]: 5 µg/mL
- MIC S. aureus [2, 5]: 6.25 µg/mL
- MIC S. aureus [2, 12]: 6.25 µg/mL
- MIC S. aureus [2, 8]: 6.25 µg/mL
- MIC C. albicans [1, 7]: 3 µg/mL
- MIC against C. albicans ([1]; Table 5, modification of TEDFK): 3 µg/mL
- MIC against C. albicans [1, 11]: 3 µg/mL
- MIC C. albicans [1, 5]: 6.25 µg/mL
- MIC C. albicans [1, 12]: 6.25 µg/mL
- MIC against C. albicans [1, 10]: 6.25 µg/mL
- MIC C. albicans [1, 8]: 6.25 µg/mL

Compound: DAACAAHHCLFR--NH2 (DAACAAHHCLFR-NH2; cysteine pairing not given here) [TEA]
- MIC S. aureus [2, 9]: > 500 µg/mL
- MIC C. albicans [1, 9]: > 100 µg/mL

Compound: KFYCNGKRVCV[Aib]R-NH2 (cysteine pairing not given here) [TEDFK-3A]
- MIC against C. albicans [1, 11]: 20 µg/mL
- MIC against C. albicans [1, 3]: 12 µg/mL

Compound: LCNGKRVCVCR--NH2 (LCNGKRVCVCR-NH2; cysteine pairing not given here) [TED17]
- MIC against C. albicans [1, 4]: 100 µg/mL

Compound: KFYCNGKRVCVCD--NH2 (KFYCNGKRVCVCD-NH2; cysteine pairing not given here) [TEDFK-11]
- MIC against C. albicans ([1]; Table 5, modification of TEDFK): 5 µg/mL
- MIC against C. albicans [1, 3]: 6 µg/mL

Compound: SFYCNGKRVCVCR--NH2 (SFYCNGKRVCVCR-NH2; cysteine pairing not given here) [TEDFS]
- MIC S. aureus [2, 7]: 50 µg/mL
- MIC C. albicans [1, 7]: 10 µg/mL

Compound: KYCNGKRVCVCRK--NH2 (KYCNGKRVCVCRK-NH2; cysteine pairing not given here) [M16]
- MIC S. aureus [2, 5]: 6.35 µg/mL
- MIC C. albicans [1, 5]: 6.25 µg/mL

Compound: KKYCNKKCVCK--NH2 [M5] (KKYCNKKCVCK-NH2; cysteine pairing not given here)
- MIC S. aureus [2, 5]: 3.16 µg/mL
- MIC C. albicans [1, 5]: 3.12 µg/mL

Compound: KFY[Aib]KKVCVCK-NH2 (cysteine pairing not given here) [M8]
- MIC S. aureus [2, 5]: 3.16 µg/mL
- MIC C. albicans [1, 5]: 3.12 µg/mL

Compound: WFYCNGKRVCVCR--NH2 (WFYCNGKRVCVCR-NH2; cysteine pairing not given here) [TEDFW]
- MIC S. aureus [2, 7]: 1 µg/mL
- MIC C. albicans [1, 7]: 10 µg/mL

Compound: FYCNGKRVCVCR--NH2 (FYCNGKRVCVCR-NH2; cysteine pairing not given here) [TEDF]
- MIC S. aureus [2, 6]: 5 µg/mL
- MIC S. aureus [2, 7]: 5 µg/mL
- MIC C. albicans [1, 6]: 10 µg/mL
- MIC C. albicans [1, 7]: 10 µg/mL

Compound: VTCDILSVEAKGVKLNDAACAAHC-LFRGRSGGYCNGKRVCVCR--CO2 H [Tenecin]
- MIC S. aureus [2, 9]: 3 µg/mL
- MIC C. albicans [1, 9]: > 500 µg/mL

Compound: KKyIKKVFVFK--NH2 [M22-26]
- MIC S. aureus [2, 8]: 3.16 µg/mL
- MIC C. albicans [1, 8]: 3.15 µg/mL

Compound: KFYCNKKRVCVCR--NH2 (KFYCNKKRVCVCR-NH2; cysteine pairing not given here) [TEDFK-5]
- MIC against C. albicans ([1]; Table 5, modification of TEDFK): 5 µg/mL
- MIC against C. albicans [1, 3]: 3 µg/mL

Compound: KFY[Aib]NGKRVCVCR-NH2 (cysteine pairing not given here) [TEDFK-1A]
- MIC against C. albicans [1, 3]: 2 µg/mL

Compound: KFYCNGKRVCVCR--NH2 [TEDFK-8] (KFYCNGKRVCVCR-NH2; cysteine pairing not given here)
- MIC against C. albicans ([1]; Table 5, modification of TEDFK): 5 µg/mL
- MIC against C. albicans [1, 3]: 6 µg/mL

Compound: CC(=O)N1CCN(c2ccc(OCC3COC(Cn4ccnc4)(c4ccc(Cl)cc4Cl)O3)cc2)CC1 (centres unmarked) [Ketoconazole, reference compound]
- MIC ([1]; Candida albicans, ATCC36232, Table 7, comparison with Ketoconazole (Example 3), read-out: MIC against C. albicans): 6 µg/mL (≈ 11.3 µM)

Compound: CNGKRVCVCR--NH2 (CNGKRVCVCR-NH2; cysteine pairing not given here) [TED15]
- MIC against C. albicans [1, 4]: > 500 µg/mL
